Read-outs that look alike come from different tables or passages of the source.
What was measured:
[1] = test system: GM00371 cells; test: Viability assay (Cell titer glo) in the 3-HIB assay; assay type: cell-based, human; conditions: read-out: 3HIB INHIBITION IC50 (μM) MEAN GM00371 cells Viablility Assay
How it was run: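 GM00371 cells (10,000/well, EMEM/15% FBS) were exposed for 24 h at 37 °C to compounds in 1:3 serial dilution from 30 μM top concentration in EMEM. Reference Compound B at 30 μM served as maximal-toxicity control. Viability read as CellTiter-Glo luminescence.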

[2] = 3-HIB assay in vitro, direct MS assay of conditioned media; assay type: cell-based, human; conditions: GM00371 cells, read-out: 3HIB INHIBITION IC50 (μM) MEAN GM00371 cells Direct MS Assay
[3] = molecular target: T1, BCAT2 (Homo sapiens, UniProt O15382); test: BCAT2 enzyme inhibition (human); assay type: biochemical
T1 sequence (O15382 28-392): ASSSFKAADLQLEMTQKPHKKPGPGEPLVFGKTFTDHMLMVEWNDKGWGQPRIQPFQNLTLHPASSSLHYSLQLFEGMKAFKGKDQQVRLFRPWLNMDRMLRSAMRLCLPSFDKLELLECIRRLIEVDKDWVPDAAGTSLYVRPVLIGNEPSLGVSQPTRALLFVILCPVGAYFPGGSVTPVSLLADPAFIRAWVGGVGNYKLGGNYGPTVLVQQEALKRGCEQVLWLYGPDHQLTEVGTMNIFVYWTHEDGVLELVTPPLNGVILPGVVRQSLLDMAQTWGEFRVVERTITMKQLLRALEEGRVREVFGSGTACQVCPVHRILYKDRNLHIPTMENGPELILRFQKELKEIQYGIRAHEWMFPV
How it was run: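 Cell-free coupled fluorescent assay: human BCATm converts branched-chain amino acids and α-ketoglutarate to L-glutamate, which L-glutamate oxidase and HRP link to resorufin formation from Amplex Red; activity taken as reduced glutamate signal.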

Structure (SMILES) | IC50 ([1]; Homo sapiens, 24 h) [µM] | IC50 ([2]; Homo sapiens, 24 h) [µM] | IC50 [3] [µM] | IC50 ([1]; 24 hours) [µM] | IC50 ([2]; 24 hours) [µM]
C#Cc1ccccc1-c1nc2cc(C(=O)NC)ccc2n1[C@H]1CCC[C@@H](NC(=O)c2ccc(Br)s2)C1 [Compound 151] | 0.1 to 0.5 | < 0.1 | < 0.1 | – | –
CNC(=O)c1ccc2c(c1)nc(-c1ccccn1)n2[C@@H]1CCC[C@H](NC(=O)c2ccc(C#N)s2)C1 [Compound 112] | ≥ 1 | 0.5 to 1 | 0.1 to 0.5 | – | –
CNC(=O)c1ccc2c(c1)nc(-c1ccccc1C#N)n2[C@H]1CCC[C@@H](NC(=O)c2ccc(C#N)s2)C1 [Compound 138] | ≥ 1 | ≥ 1 | < 0.1 | – | –
CNC(=O)c1cc2nc(-c3ccccc3F)n([C@H]3CCC[C@@H](NC(=O)c4ccc(Br)s4)C3)c2cc1F [Compound 207] | 0.1 to 0.5 | < 0.1 | < 0.1 | – | –
CNC(=O)c1ccc2c(c1)nc(-c1ccccc1C)n2[C@H]1CCC[C@@H](NC(=O)c2ccc(Br)s2)C1 [Compound 135] | 0.5 to 1 | 0.1 to 0.5 | < 0.1 | – | –
CNC(=O)c1ccc2c(c1)nc(-c1cccc(F)c1O)n2[C@H]1CCC[C@@H](NC(=O)c2ccc(Br)s2)C1 [Compound 163] | 0.1 to 0.5 | 0.1 to 0.5 | < 0.1 | – | –
CNC(=O)c1ccc2c(c1)nc(-c1ccccc1C)n2[C@H]1CCC[C@@H](NC(=O)c2ccc(C#N)s2)C1 [Compound 134] | ≥ 1 | 0.5 to 1 | < 0.1 | – | –
CNC(=O)c1ccc2c(c1)nc(-c1ccccc1C#N)n2[C@H]1CCC[C@@H](NC(=O)c2ccc(C#N)s2)C1 [Compound 139] | – | – | < 0.1 | ≥ 1 | ≥ 1
CNC(=O)c1cc2nc(-c3ccccc3C)n([C@H]3CCC[C@@H](NC(=O)c4ccc(Br)s4)C3)c2cc1F [Compound 208] | 0.1 to 0.5 | ≥ 1 | < 0.1 | – | –
CNC(=O)c1cc2nc(-c3ccccc3C#N)n([C@H]3CCC[C@@H](NC(=O)c4ccc(Br)s4)C3)c2cc1F [Compound 157] | < 0.1 | < 0.1 | < 0.1 | – | –
COC(=O)c1ccc2c(c1)nc(-c1ccccn1)n2[C@@H]1CCC[C@H](NC(=O)c2ccc(Br)s2)C1 [Compound 109] | 0.1 to 0.5 | 0.1 to 0.5 | 0.1 to 0.5 | – | –
CNC(=O)c1ccc2c(c1)nc(-c1ccccc1C=O)n2[C@H]1CCC[C@@H](NC(=O)c2ccc(Br)s2)C1 [Compound 161] | 0.1 to 0.5 | 0.1 to 0.5 | < 0.1 | – | –
CNC(=O)c1ccc2c(c1)nc(-c1c(O)cccc1F)n2[C@H]1CCC[C@@H](NC(=O)c2ccc(Br)s2)C1 [Compound 184] | 0.1 to 0.5 | 0.1 to 0.5 | < 0.1 | – | –
CNC(=O)c1ccc2c(c1)nc(-c1ccccc1C#N)n2[C@H]1CCC[C@@H](NC(=O)c2ccc(Br)s2)C1 [Compound 137] | – | – | < 0.1 | 0.1 to 0.5 | 0.1 to 0.5
COC(=O)c1cc2nc(-c3ccccn3)n([C@@H]3CCC[C@H](NC(=O)c4ccc(Br)s4)C3)c2cn1 [Compound 291] | 0.1 to 0.5 | 0.1 to 0.5 | < 0.1 | – | –
CNC(=O)c1ccc2c(c1)nc(-c1ccccc1F)n2[C@H]1CCC[C@@H](NC(=O)c2ccc(Br)s2)C1 [Compound 145] | 0.1 to 0.5 | < 0.1 | < 0.1 | – | –
CNC(=O)c1cc2nc(-c3ccccn3)n([C@H]3CCC[C@@H](NC(=O)c4ccc(Br)s4)C3)c2cc1F [Compound 155] | 0.5 to 1 | 0.5 to 1 | < 0.1 | – | –
CNC(=O)c1ccc2c(c1)nc(-c1ccccc1C#N)n2[C@H]1CCC[C@@H](NC(=O)c2ccc(Br)s2)C1 [Compound 136] | < 0.1 | < 0.1 | < 0.1 | – | –
CNC(=O)c1ccc2c(c1)nc(-c1cccc(F)c1)n2[C@H]1CCC[C@@H](NC(=O)c2ccc(Br)s2)C1 [Compound 154] | 0.1 to 0.5 | < 0.1 | < 0.1 | – | –
CNC(=O)c1cc2nc(-c3ccccn3)n([C@H]3CCC[C@@H](NC(=O)c4ccc(Br)s4)C3)c2cn1 [Compound 292] | 0.1 to 0.5 | 0.1 to 0.5 | < 0.1 | – | –

— US20220274967A1, “BCAT MODULATION” (Icagen, LLC, priority 2019, published 2022)
